Here are results for four molecules from BindingDB's records for doi:10.1021/jm9911581 (Cnrs Umr 8532, 2000).

The experiment relates to HIV-1 integrase catalytic core (disintegration assay). In words: Compound was tested in vitro to inhibit human immuno virus-1 (HIV-1) using enzymatic disintegration assay.
In turn, `O=C(O)c1ccc2ccc(/C=C/c3ccc(O)cc3)nc2c1O` [8-hydroxy-2-(4-hydroxystyryl)quinoline-7-carboxylic acid] had an IC50 of 4.2 µM. This lies in the single-digit micromolar range.
The molecule `O=C(O)c1cc(/C=C/c2ccc3ccc(C(=O)O)c(O)c3n2)ccc1O` [2-(3-carboxy-4-hydroxystyryl)-8-hydroxyquinoline-7-carboxylic acid] showed an IC50 of 2.7 µM. This IC50 lies about 1.6-fold lower than the previous one.
To `Oc1cccc2ccc(/C=C/c3ccccc3)nc12` [2-Styryl-quinolin-8-ol] belongs more than 100 µM; to `O=C(O)c1ccc2ccc(/C=C/c3ccccc3)nc2c1O` [8-hydroxy-2-styrylquinoline-7-carboxylic acid], 3.4 µM.
